Assay type in all cases: in vivo
The test system of test [1] is Erysiphe cichoracearum DC. Description: Curative and residual control test, Cucumber Powdery Mildew (QPM). Conditions: Golovinomyces cichoracearum, 72 h, read-out: Disease control (% efficacy); for Emax at 12.5 ppm: QPM 3 da R (3 day residual), 12,5 ppm; for Emax at 125 ppm / Emax at 1250 ppm: QPM 3 da R (3 day residual). The source says:
• (a) Wheat Powdery Mildew (WPM): HOST: Wheat (Triticum aestivum L.) variety Kanzler PATHOGEN: Blumeria (Erysiphe) graminis DC. f.sp. tritici E. Marchal • (b) Cucumber Powdery Mildew (QPM): HOST: Cucumber (Cucumis sativus L.) variety Bush pickle PATHOGEN: Erysiphe cichoracearum DC
This test procedure is for curative and residual control of powdery mildew diseases. • 1. Wheat seed (approximately 8-10/pot) or cucumber seed (1 seed / pot) is planted in 6 cm diameter plastic pots and maintained in the greenhouse. • 2. When the primary leaf (wheat) or the cotyledons (cucumber) is/are fully expanded, formulated test compounds are sprayed with a single nozzle overhead track sprayer at a rate of 200 l/ha. Plants are then allowed to air-dry. • 3. Inoculation precedes treatment by 2 or 3 days in the case of curative evaluations and follows treatment by 3 or 4 days in case of residual evaluations. For inoculation, plants are set up on greenhouse benches with bottom watering mats and inoculated by dusting them with conidia from powdery mildew infected plants (stock cultures at an age of 10-14 days). Between inoculation and treatment for curative evaluations and between treatment and inoculation for residual evaluations, plants are maintained in the greenhouse with bottom watering. • 4. Disease on the primary leaf (wheat) or on the cotyledons (cucumber) as percent leaf area with disease symptoms/signs is evaluated about 7 days after inoculation. In the case of wheat, the tips and bases of the leaves are excluded from the evaluation. Percent disease control is then calculated by the following formula: % disease control = 100 -(% infection in treated plants)/(% infection in untreated plants)x 100 [formula]
(§1) • 1. Technical compounds are formulated in a solvent/surfactant system consisting of 5% acetone and 0.05% Tween 20 in deionized water. Compounds are dissolved in acetone prior to addition of the water; the Tween 20 can be added through either the acetone or the water. Dilutions are made using the solvent/surfactant system. Formulated compounds are prepared using deionized water. • 2. Two kinds of controls are included: • Plants treated with the solvent/surfactant solution and inoculated (Solvent Blank). • Untreated plants which are inoculated (Inoculated Control).

Test [2] deals with Blumeria (Erysiphe) graminis DC. f.sp. hordei E. Marchal. Description: Zero day protectant test, Barley Powdery Mildew (BPM). The settings on record: barley variety Golden Promise, 0 day protectant test, side-by-side, technical material in 0.5% acetone 0.05% Tween 20 water.
Excerpt: • (a) Wheat Powdery Mildew (WPM): HOST: Wheat (Triticum aestivum L.) variety Kanzler PATHOGEN: Blumeria (Erysiphe) graminis DC. f.sp. tritici E. Marchal • (b) Barley Powdery Mildew (BPM): HOST: Barley (Hordeum vulgare L.) variety Golden Promise PATHOGEN: Blumeria (Erysiphe) graminis DC. f.sp. hordei E. Marchal
This test is a zero day protectant test for control of wheat and barley powdery mildews. • 1. Wheat or barley seed (approximately 8-10/pot) is planted in 6 cm diameter plastic pots and maintained in the greenhouse. • 2. When the primary leaf is fully expanded, formulated test compounds are sprayed with a single nozzle overhead track sprayer at a rate of 200 l/ha. Plants are then allowed to air-dry. • 3. Inoculation follows about three hours after compound application. Plants are set up on greenhouse benches with bottom watering mats and inoculated by dusting them with conidia from powdery mildew infected plants (stock cultures at an age of 10-14 days). • 4. Disease on the primary leaf as percent leaf area with disease symptoms/signs is evaluated about 7 days after inoculation. The tips and bases of the leaves are excluded from the evaluation. Percent disease control is then calculated by the following formula: % disease control = 100 -(% infection in treated plants)/(% infection in untreated plants)x 100 [formula]
as §1, with “system. Test compounds are typically tested over a range of concentrations covering several orders of magnitude and then ED values are calculated for comparison of compounds.” for “system.”
Compounds applied as technical material formulated in 0.5% acetone 0.05% Tween 20 water

The subject of test [3] is Blumeria (Erysiphe) graminis DC. f.sp. tritici E. Marchal. Description: Foliar systemicity test, wheat powdery mildew (band application on leaf). The settings on record: typically 400 ppm. The text has this: Wheat Powdery Mildew (WPM): HOST: Wheat (Triticum aestivum L.) variety Kanzler PATHOGEN: Blumeria (Erysiphe) graminis DC. f.sp. tritici E. Marchal
• 1. Wheat seed (8/pot) is planted in 8 cm diameter plastic pots in the greenhouse. • 2. When the primary leaf is fully expanded, the plants are cut back to four in each pot of which two are marked with a permanent marker 5 cm below the leaf tip on the upper leaf surface. Thus there are two band-treated and two untreated plants in each pot. • 3. A pipette is used to apply 5 µl of the formulated compound in a band on the lower leaf surface opposite the mark. The application band should cover the whole leaf width. After application, the plants are not moved until the bands are dry (half an hour or so later). • 4. After treated plants have dried, they are moved to the greenhouse and kept there for 2 days to allow for movement of the compounds. The plants are maintained with bottom watering. • 5. Two days after application, the plants are inoculated by dusting them with powdery mildew conidia in the greenhouse. Evaluations are typically made 7 - 8 days after inoculation.
Three types of compound movement are assessed by evaluating disease in three areas of each band-treated leaf. Translaminar movement: The percent disease area is assessed for the translaminar band area (marked area of the upper leaf surface directly opposite where band was applied on the lower leaf surface; width of band approximately 5 mm). Translaminar disease control is then calculated using the following formula: % disease control = 100 -(% disease in treated plants)/(% disease in untreated plants)x 100 [formula]
Distal movement and proximal movement: The distal and proximal disease-free zones on the upper leaf surface are measured in mm. The distal direction is from the band toward the leaf apex and the proximal direction is from the band toward the leaf base. The percent of the disease-free zone relative to the entire distance between the band and leaf apex or base is calculated. If disease is noticeably lighter in the distal or proximal area this is also noted.
• 1. […]

Where two headings read alike, the source gives them in different places.

As to `COc1cc(C)c(C(=O)c2c(C)cccc2OC)c(OC)c1OC` [Example 1, 6,6'-dimethyl-2,2',3',4'-tetramethoxy-benzophenone], in test [1] (Test A), the Emax at 12.5 ppm was determined as 2%, the Emax at 125 ppm was found to be 5% and the Emax at 1250 ppm turned out to be 100%. Moreover, in test [1] (Test B), the Emax at 12.5 ppm turned out to be 3%, the Emax at 125 ppm came to 61% and the Emax at 1250 ppm came to 100%. In addition, the “ED90 (ppm)” value in test [2] is given as 6 ppm. Also, in test [3] (% disease control in translaminar band area, wheat variety Kanzler), the “Translaminar Activity ( % )” value is given as 100%. In test [3] (disease-free zone on wheat leaf (variety Kanzler) from band toward leaf apex, 5 µl band, inoculated 2 days after application), the “Distal Movement (mm from band)” value is 50 mm. In test [3] (disease-free zone on wheat leaf (variety Kanzler) from band toward leaf base, 5 µl band, inoculated 2 days after application), the “Proximal Movement (mm from band)” value turned out to be 10 mm.

The record behind these values is patent EP0897904B1, “Fungicidal 2-methoxybenzophenones” (BASF AKTIENGESELLSCHAFT, priority 1997, dated 1999).
